Test results published in PMC12116762, “Topobexin targets the Topoisomerase II ATPase domain for beta isoform-selective inhibition and anthracycline cardioprotection” (Nature Communications, 2025).
Several values for one entry are separate records, joined by “and”; a condition that tells them apart may be missing. Equal values may be shown once.

Legend:
recombinant human TOP2A = target: T1, recombinant human TOP2A (Homo sapiens, UniProt P11388); experiment: In vitro ATPase activity of TOP2A (coupled assay); format: biochemical; settings: for IC50: n=3
T1 construct: Using recombinant full-length human TOP2A and TOP2B enzymes; YFP (N, cleaved yes); made in house; host or cells: HEK293F
T1 sequence (P11388 whole entry): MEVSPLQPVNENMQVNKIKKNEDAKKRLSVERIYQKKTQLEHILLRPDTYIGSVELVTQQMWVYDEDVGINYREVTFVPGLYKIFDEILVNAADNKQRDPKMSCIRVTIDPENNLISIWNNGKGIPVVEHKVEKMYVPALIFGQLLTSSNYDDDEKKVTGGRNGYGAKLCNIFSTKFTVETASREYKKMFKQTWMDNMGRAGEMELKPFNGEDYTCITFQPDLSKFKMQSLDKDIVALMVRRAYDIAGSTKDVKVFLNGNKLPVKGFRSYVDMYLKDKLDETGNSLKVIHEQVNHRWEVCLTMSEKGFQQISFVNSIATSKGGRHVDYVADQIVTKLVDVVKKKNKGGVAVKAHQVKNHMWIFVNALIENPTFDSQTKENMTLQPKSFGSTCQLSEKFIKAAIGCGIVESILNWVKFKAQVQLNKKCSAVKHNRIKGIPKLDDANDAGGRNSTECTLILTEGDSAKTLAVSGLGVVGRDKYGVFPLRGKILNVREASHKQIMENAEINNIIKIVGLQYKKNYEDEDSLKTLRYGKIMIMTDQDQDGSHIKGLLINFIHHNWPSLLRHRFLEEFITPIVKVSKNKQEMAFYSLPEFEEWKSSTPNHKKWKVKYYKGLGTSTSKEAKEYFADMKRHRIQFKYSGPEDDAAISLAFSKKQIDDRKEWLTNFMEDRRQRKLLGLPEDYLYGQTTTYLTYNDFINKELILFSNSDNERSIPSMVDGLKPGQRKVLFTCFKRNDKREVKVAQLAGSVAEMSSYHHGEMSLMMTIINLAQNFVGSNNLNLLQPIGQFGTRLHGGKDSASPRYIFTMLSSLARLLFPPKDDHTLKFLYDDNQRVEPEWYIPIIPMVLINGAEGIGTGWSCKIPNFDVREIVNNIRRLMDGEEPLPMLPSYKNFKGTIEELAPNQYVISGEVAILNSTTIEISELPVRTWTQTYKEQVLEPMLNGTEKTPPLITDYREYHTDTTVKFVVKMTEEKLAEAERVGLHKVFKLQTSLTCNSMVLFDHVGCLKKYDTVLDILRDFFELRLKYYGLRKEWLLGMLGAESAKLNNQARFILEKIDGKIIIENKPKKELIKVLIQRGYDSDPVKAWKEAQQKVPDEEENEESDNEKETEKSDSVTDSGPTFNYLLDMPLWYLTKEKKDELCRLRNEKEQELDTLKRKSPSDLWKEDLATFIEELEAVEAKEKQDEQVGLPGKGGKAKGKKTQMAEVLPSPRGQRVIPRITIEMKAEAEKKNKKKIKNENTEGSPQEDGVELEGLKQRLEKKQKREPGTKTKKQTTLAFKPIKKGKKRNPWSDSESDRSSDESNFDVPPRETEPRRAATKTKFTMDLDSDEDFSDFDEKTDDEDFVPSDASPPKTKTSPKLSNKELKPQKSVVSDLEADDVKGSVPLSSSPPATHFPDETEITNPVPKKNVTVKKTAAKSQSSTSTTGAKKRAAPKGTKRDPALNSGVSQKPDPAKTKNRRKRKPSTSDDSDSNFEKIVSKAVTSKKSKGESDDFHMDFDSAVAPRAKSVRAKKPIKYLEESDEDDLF
Procedure, shortened: (§1)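 Recombinant human TOP2A or TOP2B, prediluted to 500 nM in HEPES pH 7.5/500 mM NaCl storage buffer, in an NADH-coupled ATP hydrolysis assay, ATP-initiated at 30 °C. NADH fluorescence decay (ex 340, em 480) read every 30 s for 120 cycles. Slopes background-corrected, normalized to untreated controls, and fitted for IC50.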

recombinant human TOP2B = target: T2, recombinant human TOP2B (Homo sapiens, UniProt Q02880); experiment: In vitro ATPase activity of TOP2B (coupled assay); format: biochemical; settings: for SRbeta (SRTOP2B), TOP2 ATPase activity: TOP2A IC50 divided by TOP2B IC50; for IC50: n=3
T2 construct: Using recombinant full-length human TOP2A and TOP2B enzymes; YFP (N, cleaved yes); made in house; host or cells: HEK293F
T2 sequence (Q02880 1-1621 isoform Q02880-2): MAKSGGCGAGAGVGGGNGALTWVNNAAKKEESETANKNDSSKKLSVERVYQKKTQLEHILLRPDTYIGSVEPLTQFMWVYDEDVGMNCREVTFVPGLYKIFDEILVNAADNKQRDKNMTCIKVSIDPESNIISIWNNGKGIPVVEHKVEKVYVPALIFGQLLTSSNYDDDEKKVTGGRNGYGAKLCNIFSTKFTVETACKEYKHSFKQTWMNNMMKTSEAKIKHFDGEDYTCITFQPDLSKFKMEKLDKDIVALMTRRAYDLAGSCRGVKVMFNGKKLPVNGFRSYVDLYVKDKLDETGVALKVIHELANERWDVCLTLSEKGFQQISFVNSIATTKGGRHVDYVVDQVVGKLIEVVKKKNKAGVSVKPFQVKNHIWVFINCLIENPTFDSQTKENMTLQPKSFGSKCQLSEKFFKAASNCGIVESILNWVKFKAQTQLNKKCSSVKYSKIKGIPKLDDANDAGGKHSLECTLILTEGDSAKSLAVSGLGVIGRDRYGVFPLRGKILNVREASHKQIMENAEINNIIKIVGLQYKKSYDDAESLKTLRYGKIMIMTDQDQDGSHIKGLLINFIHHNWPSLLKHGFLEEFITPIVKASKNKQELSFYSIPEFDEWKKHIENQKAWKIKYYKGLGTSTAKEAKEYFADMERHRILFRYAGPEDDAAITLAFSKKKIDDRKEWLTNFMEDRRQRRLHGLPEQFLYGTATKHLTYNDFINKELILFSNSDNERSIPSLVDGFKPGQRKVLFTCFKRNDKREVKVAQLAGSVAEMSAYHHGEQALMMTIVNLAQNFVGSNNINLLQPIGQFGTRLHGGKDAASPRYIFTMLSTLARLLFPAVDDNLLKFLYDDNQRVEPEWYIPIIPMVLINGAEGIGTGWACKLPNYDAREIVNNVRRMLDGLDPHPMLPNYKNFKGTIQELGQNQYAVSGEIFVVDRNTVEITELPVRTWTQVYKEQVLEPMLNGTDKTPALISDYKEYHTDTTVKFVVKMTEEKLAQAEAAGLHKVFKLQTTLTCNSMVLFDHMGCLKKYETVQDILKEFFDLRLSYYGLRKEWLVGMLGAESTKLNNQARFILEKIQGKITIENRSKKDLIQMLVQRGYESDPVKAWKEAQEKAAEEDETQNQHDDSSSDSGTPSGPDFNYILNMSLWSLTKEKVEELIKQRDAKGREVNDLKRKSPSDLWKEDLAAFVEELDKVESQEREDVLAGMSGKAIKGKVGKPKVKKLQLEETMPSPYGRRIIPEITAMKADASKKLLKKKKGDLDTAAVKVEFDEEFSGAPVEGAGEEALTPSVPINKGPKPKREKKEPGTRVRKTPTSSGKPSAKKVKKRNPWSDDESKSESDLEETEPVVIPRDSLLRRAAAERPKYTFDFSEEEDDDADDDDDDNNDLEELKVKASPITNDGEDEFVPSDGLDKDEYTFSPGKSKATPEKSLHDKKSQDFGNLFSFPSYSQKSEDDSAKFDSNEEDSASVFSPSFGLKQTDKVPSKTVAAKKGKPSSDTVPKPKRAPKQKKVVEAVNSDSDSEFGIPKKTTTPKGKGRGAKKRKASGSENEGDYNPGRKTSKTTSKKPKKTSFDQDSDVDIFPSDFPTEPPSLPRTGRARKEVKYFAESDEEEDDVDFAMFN
Procedure, shortened: as §1

[1] = test system: neonatal rat ventricular cardiomyocytes (NVCM); experiment: Protection against DAU-induced cytotoxicity (LDH release) in NVCM; format: cell-based; parameters: key to Suppl.Fig.3 DAU-induced cytotoxicity (LDH release) in NVCM, mean of independent replicates / LDH release (DAU-induced cytotoxicity), mean of independent replicates: % of total LDH activity; settings: for LDH release (protection against DAU), mean of independent replicates: Suppl.Fig.8a; for LDH release: independent replicates
Procedure, shortened: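 Primary neonatal Wistar rat cardiomyocytes in serum- and pyruvate-free DMEM/F12 were pretreated with compound 3 h, then co-incubated 3 h with DAU (1.2 µM), or without DAU for inherent toxicity, then given a 48 h drug-free follow-up. Medium LDH activity (NAD+ reduction at 340 nm) expressed as % of total LDH.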

[2] = 0.03125 μM, independent replicates
[3] = 0.0625 μM, independent replicates
[4] = 0.125 μM, independent replicates
[5] = 0.25 μM, independent replicates

`C[C@@H](CN1CC(=O)NC(=O)C1)N1CC(=O)NC(=O)C1` [dexrazoxane] was tested, and the remaining activity at 0.125 µM (recombinant human TOP2A; 0.125 μM, independent replicates, read-out: Normalized % TOP2A activity, ATPase) was 90.6%, the remaining activity at 0.25 µM (recombinant human TOP2A; 0.25 μM, independent replicates, read-out: Normalized % TOP2A activity, ATPase) was 86.6% and the remaining activity at 1 µM (recombinant human TOP2A; 1 μM, independent replicates, read-out: Normalized % TOP2A activity, ATPase) was 62.9%. The remaining activity at 4 µM (recombinant human TOP2A; 4 μM, independent replicates, read-out: Normalized % TOP2A activity, ATPase) was 29.5%, the remaining activity at 8 µM (recombinant human TOP2A; 8 μM, independent replicates, read-out: Normalized % TOP2A activity, ATPase) was 19% and the remaining activity at 16 µM (recombinant human TOP2A; 16 μM, independent replicates, read-out: Normalized % TOP2A activity, ATPase) was 14.4%. It also gave an IC50 (recombinant human TOP2A) of 2.27 µM, a remaining activity at 0.03125 µM (recombinant human TOP2B; 0.03125 μM, independent replicates, read-out: Normalized % TOP2B activity, ATPase) of 97.9% and a remaining activity at 0.0625 µM (recombinant human TOP2B; 0.0625 μM, independent replicates, read-out: Normalized % TOP2B activity, ATPase) of 99.9%. For the same compound, the remaining activity at 0.125 µM (recombinant human TOP2B; 0.125 μM, independent replicates, read-out: Normalized % TOP2B activity, ATPase) was 96.3%, the remaining activity at 0.25 µM (recombinant human TOP2B; 0.25 μM, independent replicates, read-out: Normalized % TOP2B activity, ATPase) was 88.7% and the remaining activity at 0.5 µM (recombinant human TOP2B; 0.5 μM, independent replicates, read-out: Normalized % TOP2B activity, ATPase) was 80.9%. It also gave a remaining activity at 1 µM (recombinant human TOP2B; 1 μM, independent replicates, read-out: Normalized % TOP2B activity, ATPase) of 74.8%, a remaining activity at 2 µM (recombinant human TOP2B; 2 μM, independent replicates, read-out: Normalized % TOP2B activity, ATPase) of 68.4% and a remaining activity at 4 µM (recombinant human TOP2B; 4 μM, independent replicates, read-out: Normalized % TOP2B activity, ATPase) of 45%. For the same compound, the remaining activity at 8 µM (recombinant human TOP2B; 8 μM, independent replicates, read-out: Normalized % TOP2B activity, ATPase) was 24.3%, the remaining activity at 16 µM (recombinant human TOP2B; 16 μM, independent replicates, read-out: Normalized % TOP2B activity, ATPase) was 14.6% and the remaining activity at 32 µM (recombinant human TOP2B; 32 μM, independent replicates, read-out: Normalized % TOP2B activity, ATPase) was 13.2%. For the same compound, the “relative inhibition of TOP2A vs TOP2B” value (recombinant human TOP2B; ATPase) was “inhibits ATP hydrolysis for both isoforms with equal potency”, the “SRbeta (SRTOP2B), TOP2 ATPase activity” value (recombinant human TOP2B) was 0.89 and the IC50 (recombinant human TOP2B) was 2.55 µM. The “concentration needed for similar extent of protection, relative to topobexin (9)” value ([1]; NVCM) was “at least 10 ×”, the “LDH release (protection against DAU), mean of independent replicates” value (“LDH release (protection against DAU)” below) ([1]; compound 0.1 µM + DAU 1.2 µM, NVCM) was 48.0486 and the “LDH release (protection against DAU)” value ([1]; compound 1 µM + DAU 1.2 µM, NVCM) was 43.2962. The “LDH release (protection against DAU)” value ([1]; compound 10 µM + DAU 1.2 µM, NVCM) was 41.8711 and the “LDH release (protection against DAU)” value ([1]; compound 100 µM + DAU 1.2 µM, NVCM) was 36.8821.
For `CCCc1cc(=O)oc2c(C(=O)N3CCCc4ccccc43)c(OC)cc(OC)c12` [BNS-22], the “Normalized % TOP2A activity, ATPase” value (recombinant human TOP2A; [2]) was 106.5339% and 96.82% and 104.97%, the “Normalized % TOP2A activity, ATPase” value (recombinant human TOP2A; [3]) was 99.93% and 96.81% and 104.654% and the “Normalized % TOP2A activity, ATPase” value (recombinant human TOP2A; [4]) was 97.92% and 87.09% and 103.8686%. The “Normalized % TOP2A activity, ATPase” value (recombinant human TOP2A; [5]) was 84.39% and 86.41% and 95.01%, the “Normalized % TOP2A activity, ATPase” value (recombinant human TOP2A; 0.5 μM, independent replicates) was 68.7163% and 74.39% and 48.12% and the “Normalized % TOP2A activity, ATPase” value (recombinant human TOP2A; 1 μM, independent replicates) was 44.71% and 47.48% and 56.42%. For the same compound, the “Normalized % TOP2A activity, ATPase” value (recombinant human TOP2A; 2 μM, independent replicates) was 21.32% and 23.49% and 28.53%, the “Normalized % TOP2A activity, ATPase” value (recombinant human TOP2A; 4 μM, independent replicates) was 7.817% and 9.176% and 12.94% and the “Normalized % TOP2A activity, ATPase” value (recombinant human TOP2A; 8 μM, independent replicates) was 4.538% and 5.681% and 5.457%. For the same compound, the “Normalized % TOP2A activity, ATPase” value (recombinant human TOP2A; 16 μM, independent replicates) was 3.325% and 1.312% and 2.254%, the “Normalized % TOP2A activity, ATPase” value (recombinant human TOP2A; 32 μM, independent replicates) was 1.897% and 0.9839% and 2.191% and the IC50 (recombinant human TOP2A) was 1.27 µM. The “Normalized % TOP2B activity, ATPase” value (recombinant human TOP2B; [2]) was 92.74% and 92.18% and 98.3%, the “Normalized % TOP2B activity, ATPase” value (recombinant human TOP2B; [3]) was 92.24% and 94.66% and 102.1588% and the “Normalized % TOP2B activity, ATPase” value (recombinant human TOP2B; [4]) was 100.3668% and 84.21% and 108.4459%. The “Normalized % TOP2B activity, ATPase” value (recombinant human TOP2B; [5]) was 91.2179% and 87.24% and 97.62%, the “Normalized % TOP2B activity, ATPase” value (recombinant human TOP2B; 0.5 μM, independent replicates) was 80.5% and 76.19% and 88.45% and the “Normalized % TOP2B activity, ATPase” value (recombinant human TOP2B; 1 μM, independent replicates) was 58.26% and 48.84% and 67.64%. The “Normalized % TOP2B activity, ATPase” value (recombinant human TOP2B; 2 μM, independent replicates) was 31.308% and 30.02% and 38.85%, the “Normalized % TOP2B activity, ATPase” value (recombinant human TOP2B; 4 μM, independent replicates) was 10.88% and 8.636% and 13.51% and the “Normalized % TOP2B activity, ATPase” value (recombinant human TOP2B; 8 μM, independent replicates) was 2.82% and 1.793% and 10.43%. The “Normalized % TOP2B activity, ATPase” value (recombinant human TOP2B; 16 μM, independent replicates) was 1.695% and 1.187% and 0.8652%, the “Normalized % TOP2B activity, ATPase” value (recombinant human TOP2B; 32 μM, independent replicates) was 0.8806% and 0.9028% and 0.7954% and the “selectivity ratio in favour of TOP2B (SRTOP2B)” value (recombinant human TOP2B; ATP hydrolysis and DNA decatenation) was 1.5–1.6. For the same compound, the “SRbeta (SRTOP2B), TOP2 ATPase activity” value (recombinant human TOP2B) was 1.5, the IC50 (recombinant human TOP2B) was 0.87 µM and the minimal effective concentration ([1]; NVCM, protection against DAU 1.2 µM, n=4, read-out: LEC = lowest effective concentration) was 1 µM. For the same compound, the “LDH release, mean” value ([1]; compound 0.01 µM + DAU 1.2 µM) was 38.9374 % of total LDH, the “Suppl.Fig.3 DAU-induced cytotoxicity (LDH release) in NVCM, mean of independent replicates” value (shortened to “Suppl.Fig.3 DAU-induced cytotoxicity”) ([1]; compound 0.01 µM + DAU 1.2 µM) was 38.9374 and the LDH release ([1]; compound 0.01 µM + DAU 1.2 µM) was 36.8796 % of total LDH and 42.975 % of total LDH and 39.3894 % of total LDH and 36.5057 % of total LDH. For the same compound, the “LDH release, mean” value ([1]; compound 0.1 µM + DAU 1.2 µM) was 33.1153 % of total LDH, the “Suppl.Fig.3 DAU-induced cytotoxicity” value ([1]; compound 0.1 µM + DAU 1.2 µM) was 33.1153 and the LDH release ([1]; compound 0.1 µM + DAU 1.2 µM) was 30.1987 % of total LDH and 38.5314 % of total LDH and 34.1236 % of total LDH and 29.6074 % of total LDH. For the same compound, the “LDH release, mean” value ([1]; compound 1 µM + DAU 1.2 µM) was 28.1702 % of total LDH, the “Suppl.Fig.3 DAU-induced cytotoxicity” value ([1]; compound 1 µM + DAU 1.2 µM) was 28.1702 and the LDH release ([1]; compound 1 µM + DAU 1.2 µM) was 24.6443 % of total LDH and 29.0885 % of total LDH and 32.0729 % of total LDH and 26.875 % of total LDH. For the same compound, the “LDH release, mean” value ([1]; compound 3 µM + DAU 1.2 µM) was 24.9748 % of total LDH, the “Suppl.Fig.3 DAU-induced cytotoxicity” value ([1]; compound 3 µM + DAU 1.2 µM) was 24.9748 and the LDH release ([1]; compound 3 µM + DAU 1.2 µM) was 26.7887 % of total LDH and 18.8271 % of total LDH and 27.1872 % of total LDH and 27.096 % of total LDH. For the same compound, the “LDH release, mean” value ([1]; compound 10 µM + DAU 1.2 µM) was 23.9768 % of total LDH, the “Suppl.Fig.3 DAU-induced cytotoxicity” value ([1]; compound 10 µM + DAU 1.2 µM) was 23.9768 and the LDH release ([1]; compound 10 µM + DAU 1.2 µM) was 25.2929 % of total LDH and 19.0756 % of total LDH and 25.4172 % of total LDH and 26.1213 % of total LDH.
